Measurements: PubChem BioAssay (NCI)
Several values for one entry are separate records, joined by “and”; a condition that tells them apart may be missing. Equal entries are not always repeated.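 Test compounds were applied to cells in 96-well plates for 48 hours at 5 doses. GI50 is the concentration that inhibits growth by half. At the TGI there is no net growth.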

Experiments:
Assay in all cases: NCI anticancer screen, dose series, 48 h
NCI/ADR-RES ovarian = system: NCI/ADR-RES ovarian
T-47D breast = system: T-47D breast
A549 NSCLC = system: A549 NSCLC
UACC-62 melanoma = system: UACC-62 melanoma
SR leukemia = system: SR leukemia
SN12C renal = system: SN12C renal
MDA-MB-435 = system: MDA-MB-435
HCC-2998 colon = system: HCC-2998 colon
SNB-19 CNS = system: SNB-19 CNS
HS 578T breast = system: HS 578T breast

Compound	TGI (NCI/ADR-RES ovarian)	TGI (T-47D breast)	TGI (A549 NSCLC)	TGI (UACC-62 melanoma)	TGI (SR leukemia)	TGI (SN12C renal)	TGI (MDA-MB-435)	TGI (HCC-2998 colon)	TGI (SNB-19 CNS)	TGI (HS 578T breast)	GI50 (UACC-62 melanoma)
Cc1c2c(c(O)c3c(O)cccc13)C(=O)C1(O)C(O)=C(C(=O)NCNc3ccc(C(N)=O)cn3)C(=O)C(N(C)C)C1C2 (configuration not stated)	> 100 µM	> 100 µM	23 µM	9.59 µM	9.53 µM	> 100 µM	27.1 µM	8.66 µM			
CC(=O)NC1(c2cc3ccccc3s2)CCCCCC1	> 100 µM		> 100 µM	> 100 µM	93.1 µM	> 100 µM	> 100 µM	> 100 µM	> 100 µM		
Cc1cc(/C=C/c2cc[n+](C)c3ccccc23)c(O)c2ncccc12			19.1 µM	9.19 µM	4.3 µM	16 µM		14.5 µM	20.8 µM		
COc1ccc(C2SCC(=O)N2NC(=O)c2ccc(NC(C)=O)cc2)c(OC)c1 (configuration not stated)	> 100 µM	> 100 µM	> 100 µM	> 100 µM		> 100 µM	> 100 µM	> 100 µM	> 100 µM	> 100 µM	
N#Cc1c(-c2ccc(Cl)cc2)[nH]c(=O)n(C2OC(CO)C(O)C(O)C2O)c1=O (configuration not stated)	> 100 µM	> 100 µM	> 100 µM	> 100 µM		> 100 µM	> 100 µM	> 100 µM	> 100 µM	> 100 µM	
Cc1c(N2CCN(C)CC2)nc2ccc(Cl)cc2c1-c1ccccc1			36.9 µM	30.3 µM	39.2 µM	29 µM		> 10 µM	66.2 µM		
CC(=O)OCC1OC(n2c(-c3ccccc3)c(C(C)=O)c(-c3cccc4ccccc34)c(C#N)c2=S)C(OC(C)=O)C(OC(C)=O)C1OC(C)=O (configuration not stated)	> 100 µM	> 100 µM	> 100 µM	> 100 µM	> 100 µM	> 100 µM	> 100 µM	> 100 µM	> 100 µM		80.4 µM and 26.7 µM
CC1=C(O)C(=O)C2C(=O)C1C1Cc3ccccc3C21 (configuration not stated)			> 100 µM	> 100 µM	> 100 µM			> 100 µM	> 100 µM		
O=C(O)CCSCc1ccccc1	> 100 µM	> 100 µM	> 100 µM	> 100 µM		> 100 µM	> 100 µM	> 100 µM	> 100 µM	> 100 µM	
CC(=O)Nc1ccc2c3c(cc(O)c2c1)N(C(=O)CCCCCCC(=O)N1CC(CCl)c2c1cc(O)c1cc(NC(C)=O)ccc21)CC3CCl (configuration not stated)	> 74.6 µM	< 0.01 µM	> 100 µM	0.013 µM		0.237 µM	0.0604 µM		0.913 µM		
O=C(Nc1ccc2[nH]c(C(=O)N3CC(CCl)c4c3cc([N+](=O)[O-])c3ccccc43)cc2c1)Nc1ccc2[nH]c(C(=O)N3CC(CCl)c4c3cc([N+](=O)[O-])c3ccccc43)cc2c1 (configuration not stated)	> 100 µM	> 100 µM	> 100 µM	> 100 µM		> 100 µM	> 100 µM		> 100 µM		
CC(C)NC(=O)N(Nc1ccccc1)C(C)(C)C	> 100 µM		> 100 µM	> 100 µM	> 100 µM	> 100 µM		> 100 µM	> 100 µM	> 100 µM	
COC(O)C(=O)c1ccc2c(c1)CC1(C2)Cc2cc3c(cc2C1=O)CCC3 (configuration not stated)	> 100 µM	48.1 µM	47.4 µM	34 µM		29.6 µM	35.3 µM	38.6 µM	34.5 µM	60.7 µM	
CC(C)C(=O)Nc1cc(C(F)(F)F)ccc1[N+](=O)[O-]	> 100 µM	> 100 µM	> 100 µM	> 100 µM		> 100 µM	> 100 µM	> 100 µM	> 100 µM	> 100 µM	
CC1SCc2nc3ccccc3n21 (configuration not stated)	> 100 µM	> 100 µM	> 100 µM	> 100 µM		> 100 µM	> 100 µM	> 100 µM	> 100 µM	> 100 µM	
CCOc1ccc(N/C(=C(/C(Cl)=C(/Cl)N2CCCCC2)[N+](=O)[O-])n2nnc3ccccc32)cc1	43.5 µM	49.6 µM	62.9 µM	31.6 µM		41.9 µM	32.3 µM	59.2 µM	44 µM		
CC1=C(c2ccccc2)NC(=S)C(C)C(c2ccccc2)=N1 (configuration not stated)	> 100 µM	> 100 µM	> 100 µM	> 100 µM	> 100 µM	> 100 µM	69.3 µM	> 100 µM	> 100 µM		
C=C(CCC/C(C)=C/C=C/[C@@H](C)CCCc1ccoc1)C[C@@H]1OC(=O)[C@H](C)[C@@H]1O	19.9 µM	26.2 µM	17 µM	12.3 µM	> 50 µM	20.6 µM	16.3 µM	24.8 µM	17.8 µM		

Compound	TGI (NCI/ADR-RES ovarian)	TGI (T-47D breast)	TGI (A549 NSCLC)	TGI (UACC-62 melanoma)	TGI (SR leukemia)	TGI (SN12C renal)	TGI (MDA-MB-435)	TGI (HCC-2998 colon)	TGI (SNB-19 CNS)	TGI (HS 578T breast)	GI50 (UACC-62 melanoma)
Nc1nc2ncc(CNc3ccc(C(=O)NC(CCC(=O)O)C(=O)O)cc3)nc2c(=O)[nH]1 (configuration not stated)	> 100 µM		> 100 µM	> 100 µM	> 100 µM	> 100 µM	> 100 µM	> 100 µM	> 100 µM	> 100 µM	
CC(C)N=C(N)NC#N			> 100 µM	> 100 µM		> 100 µM		> 100 µM	> 100 µM		
O=[N+]([O-])C(=C(N1CCOCC1)N1CCOCC1)/C(Cl)=C(\Cl)Br	52.9 µM	32.1 µM	> 100 µM		37.1 µM	31.7 µM		> 100 µM	> 100 µM	> 100 µM	
[N-]=[N+]=NC(c1cn(C2CC(O)C(CO)O2)c(=O)[nH]c1=O)C(Cl)I (configuration not stated)	> 100 µM	> 100 µM	> 100 µM	> 100 µM		> 100 µM	> 100 µM	> 100 µM	> 100 µM	> 100 µM	
CCOC(=O)C1=CCOc2cc(N(C)C)ccc21	> 100 µM		> 100 µM	> 100 µM	> 100 µM	> 100 µM	> 100 µM	> 100 µM	> 100 µM	> 100 µM	
N#CC(Cc1ccccc1)N(CCC1=CCCCC1)Cc1ccccc1 (configuration not stated)	> 100 µM	> 100 µM	> 100 µM	> 100 µM			91.1 µM	> 100 µM	> 100 µM	> 100 µM	
CN1C(=O)C2(C=CC(O)CC2)c2ccccc21 (configuration not stated)	> 100 µM	> 100 µM	> 100 µM	> 100 µM	> 100 µM	> 100 µM	> 100 µM	> 100 µM	> 100 µM		
COC(=O)c1ccc(N=NN(C)COc2ccc(Br)cc2)cc1	> 100 µM		> 100 µM	> 100 µM		> 100 µM		87.7 µM	> 100 µM		
CSc1nc(NC2OC(COC(C)=O)C(OC(C)=O)C(OC(C)=O)C2OC(C)=O)c2c(n1)OCC2=O (configuration not stated)			> 100 µM	> 100 µM	> 100 µM	> 100 µM			> 100 µM		
CCOC(=O)c1cc2/c(=C\c3ccc(N(C)C)cc3)c3ccccc3n2[n+]1C	> 100 µM	24.6 µM	> 40 µM	14.2 µM		14.4 µM	11.5 µM	10 µM	15.6 µM		
COc1ccccc1-c1cc(=O)c2cc3c(cc2[nH]1)OCO3			> 100 µM	> 100 µM	> 100 µM	> 100 µM		> 100 µM	> 100 µM		
Cc1cc(Cc2cc(C)c(NC(=O)C(=O)C3CCC4=C(SC5C=CC=CC5N4)C3=O)c(C(C)C)c2)cc(C(C)C)c1NC(=O)C(=O)C1CCC2=C(SC3C=CC=CC3N2)C1=O (configuration not stated)	> 100 µM	> 100 µM	> 100 µM	> 100 µM	> 100 µM	> 100 µM	> 100 µM	> 100 µM			
Cc1ccc(/C(O)=C/C(=O)C(=O)NC23CC4CC(CC(C4)C2)C3)cc1		> 10 µM	> 10 µM	> 10 µM	> 10 µM	> 10 µM	> 10 µM	> 10 µM			
COc1ccc(-c2cc(=O)c3cc(OC)ccc3[nH]2)cc1			> 100 µM	> 100 µM	> 100 µM	> 100 µM		> 100 µM	> 100 µM		
O=C(CN1CCOCC1)c1ccc2c(c1)oc(=O)n2CCN1CCOCC1	> 100 µM				> 100 µM	> 100 µM	> 100 µM		> 100 µM	> 100 µM	
COc1ccc(/C(Cl)=C(\C=N/O)c2ccc(OC)c(OC)c2)cc1OC			> 100 µM	> 100 µM	> 100 µM	> 100 µM		> 100 µM	> 100 µM		
CCCCCCCCCCCCCCCCCCNC(=S)/N=C\C1=C(O)c2ccccc2C1=O	31.7 µM	37.2 µM	28 µM			31.1 µM	30.9 µM	6.4 µM	35.9 µM	35 µM	
Cc1ccc(S(=O)(=O)Oc2nc3ccccc3nc2OS(=O)(=O)c2ccc(C)cc2)cc1	> 100 µM		> 100 µM	> 100 µM	> 100 µM	> 100 µM	> 100 µM	> 100 µM	> 100 µM	> 100 µM	
